Test systems include A498; CAKI-1; CCRF-CEM; COLO 205; DU-145; HCT-15; HT-29; K562; MCF7; MOLT-4; NCI-H226; NCI/ADR-RES; OVCAR-4; SF-295; SK-MEL-2; SK-MEL-5; SNB-19; UACC-62; UO-31; SK-OV-3.
Common to all, as to assay: inhibition of tumour cell growth, NCI panel, 48 h

The text below walks through data of ChEMBL document CHEMBL1201862, “PubChem BioAssay data set” (2004).

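Cells were grown in 96-well plates and exposed to each compound for 48 hours at five concentrations; endpoints were interpolated linearly between bracketing concentrations, or set to the highest concentration if not reached. GI50 is the concentration that inhibits growth by half.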 Active and inactive are the calls of the source. Cut-off read from the data, not from the text of the source: active = GI50 up to about 1.1 µM and inactive = higher.

With `COC(=O)[C@@H](Cc1ccccc1)N1O[C@]12CCCC[C@@H]2NC(=O)OC(C)(C)C` (some centres undefined), the GI50 in the assay with A498 is 41.8 µM (inactive); in the assay on CAKI-1 it was 35.8 µM (inactive); in the assay on CCRF-CEM, 14.7 µM (inactive); in the assay on COLO 205, 26.7 µM (inactive); in the assay with DU-145 it was 29.4 µM (inactive); with HCT-15, 18.4 µM. The GI50 in the assay on HT-29 is 18.3 µM (inactive); with K562, 40.1 µM (inactive); with MCF7 it was 15.2 µM (inactive); with MOLT-4, 37.5 µM (inactive); with NCI-H226 it was 47.3 µM (inactive); in the assay with NCI/ADR-RES it was 23.1 µM (inactive). Besides, the GI50 in the assay on OVCAR-4 is 31.6 µM (inactive); in the assay with SF-295 it was 55.6 µM (inactive); with SK-MEL-2 it was 20.4 µM (inactive); with SK-MEL-5 it was 19.5 µM (inactive); in the assay with SNB-19, 74.3 µM (inactive); in the assay on UACC-62 it was 23.2 µM (inactive). In addition, the GI50 in the assay with UO-31 is 14.5 µM (inactive).
Take `Cc1ccc2c(c1)C/C(=C\c1ccccc1C(=O)O)C2=O`: the GI50 is > 100 µM (inactive) with A498; > 100 µM (inactive) in the assay with CAKI-1; > 100 µM (inactive) with CCRF-CEM; 35.6 µM (inactive) in the assay with COLO 205; > 100 µM (inactive) in the assay with DU-145; greater than 100 µM in the assay with HCT-15. Moreover, the GI50 in the assay with HT-29 was 40.6 µM (inactive); with K562, 98.2 µM (inactive); in the assay on MCF7 it was > 100 µM (inactive); in the assay with MOLT-4, > 100 µM (inactive); with NCI-H226 it was 37 µM (inactive); with NCI/ADR-RES, > 100 µM (inactive). The GI50 is > 100 µM (inactive) with OVCAR-4; > 100 µM (inactive) in the assay on SF-295; > 100 µM (inactive) with SK-MEL-2; 52.6 µM (inactive) in the assay with SK-MEL-5; > 100 µM (inactive) in the assay on SNB-19; > 100 µM (inactive) in the assay on UACC-62. The GI50 in the assay on UO-31 was 98.6 µM (inactive).
In the case of `CC(=O)O[C@H]1C[C@H]2[C@@H](OC(C)=O)/C=C3\C[C@](C)(C(=O)[C@H](O)C(=C1C)C2(C)C)[C@@H](O)C[C@@H]3OC(=O)[C@H](O)[C@H](c1ccccc1)N(C)C`, the GI50 in the assay on A498 was > 100 µM (inactive); in the assay with CAKI-1 it was > 100 µM (inactive); in the assay on CCRF-CEM it was > 100 µM (inactive); in the assay with COLO 205, > 100 µM (inactive); with DU-145, > 100 µM (inactive); with HCT-15, greater than 100 µM. The GI50 in the assay with K562, with MCF7, in the assay with MOLT-4, in the assay with NCI-H226, in the assay with NCI/ADR-RES and in the assay with OVCAR-4 was > 100 µM (inactive) throughout. Besides, the GI50 in the assay on SF-295, with SK-MEL-5, with SK-OV-3, in the assay on SNB-19, in the assay on UACC-62 and in the assay on UO-31 was > 100 µM (inactive) in each case.
With `FC(F)(F)c1ccccc1C1SCC2=Nc3ccccc3CN21` (centres undefined), the GI50 in the assay with A498 is 17.1 µM (inactive); with CAKI-1 it was 24.9 µM (inactive); in the assay on CCRF-CEM, 26.5 µM (inactive); in the assay with COLO 205, 12.5 µM (inactive); in the assay on DU-145, 12.8 µM (inactive); in the assay on HCT-15 it was 14.1 µM. Besides, the GI50 in the assay on HT-29 is 16.4 µM (inactive); in the assay with K562, 21.8 µM (inactive); in the assay on MCF7 it was 13.6 µM (inactive); in the assay on MOLT-4, 21.8 µM (inactive); with NCI-H226 it was 12.6 µM (inactive); with NCI/ADR-RES, 18.3 µM (inactive). Moreover, the GI50 is 15.4 µM (inactive) with OVCAR-4; 13.1 µM (inactive) with SF-295; 14.7 µM (inactive) in the assay on SK-MEL-5; 18.6 µM (inactive) in the assay on SK-OV-3; 10.1 µM (inactive) in the assay with SNB-19; 13.2 µM (inactive) in the assay on UACC-62. In the assay with UO-31, the GI50 was 11.8 µM (inactive).
Take `CCOP(=O)(OCC)C(N)Cc1ccc(OC)c(OC)c1` (centres undefined): the GI50 in the assay with A498 is > 100 µM (inactive); in the assay with CAKI-1, > 100 µM (inactive); in the assay with CCRF-CEM, > 100 µM (inactive); in the assay on COLO 205, > 100 µM (inactive); with DU-145 it was > 100 µM (inactive); in the assay with HCT-15, greater than 100 µM. The GI50 was > 100 µM (inactive) in the assay on HT-29; > 100 µM (inactive) in the assay with K562; 45.3 µM (inactive) in the assay with MCF7; > 100 µM (inactive) in the assay on MOLT-4; > 100 µM (inactive) with NCI-H226; > 100 µM (inactive) in the assay on NCI/ADR-RES. For the same molecule, the GI50 in the assay on OVCAR-4, in the assay on SF-295, in the assay on SK-MEL-2, in the assay with SK-MEL-5, with SNB-19 and in the assay on UACC-62 was > 100 µM (inactive) each time. Further, the GI50 in the assay on UO-31 was > 100 µM (inactive).
Take `COc1cc2c(c(O)c1OC)CC1CCC(=O)N1C2c1cccc2ccccc12` (centres undefined): the GI50 in the assay on A498 was 18.5 µM (inactive); in the assay on CAKI-1 it was 19.5 µM (inactive); in the assay on CCRF-CEM it was 30.8 µM (inactive); in the assay on COLO 205, 15.6 µM (inactive); in the assay on DU-145, 18.5 µM (inactive); with HCT-15, 24.4 µM. Also, the GI50 in the assay with HT-29 was 18.2 µM (inactive); with K562, 35.3 µM (inactive); in the assay on MCF7, 30.9 µM (inactive); in the assay with MOLT-4 it was 26.1 µM (inactive); in the assay on NCI/ADR-RES, 19.4 µM (inactive); in the assay on OVCAR-4 it was > 10 µM (inactive). Moreover, the GI50 with SF-295 was 18.6 µM (inactive); in the assay with SK-MEL-2, 17.5 µM (inactive); in the assay on SK-MEL-5, 13.4 µM (inactive); in the assay on SK-OV-3 it was 18.9 µM (inactive); in the assay on SNB-19, 15.6 µM (inactive); in the assay with UACC-62, 14.2 µM (inactive). Further, the GI50 in the assay with UO-31 was 17.6 µM (inactive).
As for `COc1ccc(/C=C2/S/C(=N\c3ccccc3)N(NC(=O)Cc3ccccc3)C2=O)cc1`, the GI50 was > 100 µM (inactive) in the assay on A498; > 100 µM (inactive) in the assay with CCRF-CEM; > 100 µM (inactive) in the assay on COLO 205; > 100 µM (inactive) with DU-145; greater than 100 µM in the assay with HCT-15; > 100 µM (inactive) in the assay with HT-29. In addition, the GI50 is > 100 µM (inactive) in the assay on K562; > 100 µM (inactive) in the assay with MCF7; > 100 µM (inactive) in the assay on MOLT-4; > 100 µM (inactive) in the assay with NCI-H226; > 100 µM (inactive) in the assay with NCI/ADR-RES; 74.3 µM (inactive) in the assay with OVCAR-4. Further, the GI50 with SF-295, in the assay on SK-MEL-2, in the assay on SK-MEL-5, in the assay with SK-OV-3, in the assay with SNB-19 and in the assay on UACC-62 was > 100 µM (inactive) throughout. Moreover, the GI50 with UO-31 was 92.3 µM (inactive).
Regarding `CC(C)C(=O)Oc1cc2c(=O)oc3c(OC(=O)C(C)C)c(OC(=O)C(C)C)cc4c(=O)oc(c1OC(=O)C(C)C)c2c34`, the GI50 was > 100 µM (inactive) in the assay on A498; > 100 µM (inactive) with CAKI-1; > 100 µM (inactive) with CCRF-CEM; > 100 µM (inactive) with COLO 205; > 100 µM (inactive) with DU-145; greater than 100 µM in the assay with HCT-15. Further, the GI50 in the assay on HT-29, with K562, in the assay with MCF7, in the assay with MOLT-4, with NCI-H226 and in the assay on NCI/ADR-RES was > 100 µM (inactive) in each case. For the same molecule, the GI50 in the assay with OVCAR-4, in the assay on SF-295, with SK-MEL-5, in the assay with SK-OV-3, with SNB-19 and with UACC-62 was > 100 µM (inactive) in each case. Further, the GI50 with UO-31 is > 100 µM (inactive).
For `CNC(=O)Nc1ccccc1`, the GI50 was > 100 µM (inactive) in the assay on A498; > 100 µM (inactive) with CAKI-1; > 100 µM (inactive) with CCRF-CEM; > 100 µM (inactive) with COLO 205; > 100 µM (inactive) with DU-145; greater than 100 µM in the assay with HCT-15. Also, the GI50 in the assay with HT-29, in the assay with K562, in the assay with MCF7, with MOLT-4, in the assay with NCI-H226 and in the assay on NCI/ADR-RES was > 100 µM (inactive) each time. Moreover, the GI50 in the assay on OVCAR-4, with SF-295, with SK-MEL-2, in the assay on SK-MEL-5, in the assay on SNB-19 and in the assay on UACC-62 was > 100 µM (inactive) each time. Also, the GI50 in the assay on UO-31 was > 100 µM (inactive).
For the molecule `COc1cc2cc(C(=O)N3CC(CCl)c4ccc(O)cc43)[nH]c2c(OC)c1OC` (centres undefined), the GI50 in the assay on A498 was < 0.01 µM (active); with CAKI-1, 0.00218 µM (active); in the assay with CCRF-CEM it was < 0.01 µM (active); in the assay with COLO 205 it was 0.0227 µM (active); in the assay with DU-145, 0.00466 µM (active); in the assay with HCT-15, 0.00562 µM. Besides, the GI50 was 0.00104 µM (active) in the assay with HT-29; 0.000282 µM (active) with K562; < 0.0001 µM (active) in the assay on MCF7; 0.000865 µM (active) in the assay on MOLT-4; 0.0168 µM (active) with NCI-H226; 0.00162 µM (active) in the assay with NCI/ADR-RES. Besides, the GI50 with OVCAR-4 is 0.00491 µM (active); in the assay on SF-295 it was 0.000285 µM (active); with SK-MEL-2 it was 0.00169 µM (active); with SK-MEL-5 it was < 0.0001 µM (active); in the assay on SNB-19, 0.00406 µM (active); in the assay on UACC-62, 0.00136 µM (active). Also, the GI50 in the assay on UO-31 is 0.0198 µM (active).
